The results in this text go back to patent US9167821B2 (priority 2009, dated 2015).

One may read the chromatographic logP as lipophilicity estimated from chromatographic retention. Low readings indicate a more hydrophilic compound, high ones a more lipophilic compound.

This series is described as follows: physchem.

Counter-ions that a name gives are not always drawn.

Excerpt: The determination is effected in the acidic range at pH 2.3 using 0.1% aqueous phosphoric acid and acetonitrile as eluents; linear gradient from 10% acetonitrile to 95% acetonitrile. • ^[b] The LC-MS determination in the acidic range is effected at pH 2.7 using 0.1% aqueous formic acid and acetonitrile (contains 0.1% formic acid) as eluents; linear gradient from 10% acetonitrile to 95% acetonitrile. • ^[c] The LC-MS determination in the neutral range is effected at pH 7.8 using 0.001 molar aqueous ammonium hydrogencarbonate solution and acetonitrile as eluents; linear gradient from 10% acetonitrile to 95% acetonitrile.
The calibration is effected with unbranched alkan-2-ones (having 3 to 16 carbon atoms) with known log P values (determination of the log P values using the retention times by linear interpolation between two successive alkanones).

As for `CC(C)(C)OC(=O)N1CCC(c2nc(C3=NOC(c4ccccc4O)C3)cs2)CC1` (stereo not drawn) [X-a-5, tert-Butyl 4-{4-[5-(2-hydroxyphenyl)-4,5-dihydro-1,2-oxazol-3-yl]-1,3-thiazol-2-yl}piperidine-1-carboxylate], the chromatographic logP (pH 2.7, log P (pH2.7)) was 3.22. `O=C(Cn1nc(C(F)F)cc1C(F)F)N1CCC(c2nc(C3=NOC(c4ccccc4CCl)C3)cs2)CC1` (stereo not drawn) [I-44, 2-[3,5-Bis(difluoromethyl)-1H-pyrazol-1-yl]-1-[4-(4-{5-[2-(chloromethyl)phenyl]-4,5-dihydro-1,2-oxazol-3-yl}-1,3-thiazol-2-yl)piperidin-1-yl]ethanone]: the chromatographic logP (pH 2.7, logp [b]) amounted to 3.36. Regarding `O=Cc1ccccc1C1CC(c2csc(C3CCNCC3)n2)=NO1` (stereo not drawn) [XII-3, 2-{3-[2-(Piperidin-4-yl)-1,3-thiazol-4-yl]-4,5-dihydro-1,2-oxazol-5-yl}benzaldehyde hydrochloride], the chromatographic logP (pH 2.7, log P (HCOOH)) stood at 0.76. Molecule `O=[N+]([O-])c1ccccc1C1CC(c2csc(C3CCNCC3)n2)=NO1` (stereo not drawn) [XII-6, 4-{4-[5-(2-Nitrophenyl)-4,5-dihydro-1,2-oxazol-3-yl]-1,3-thiazol-2-yl}piperidinium chloride] registered a chromatographic logP (pH 2.7, log P (pH2.7)) of 1.09. For the molecule `C=CCOc1cccc(Cl)c1C1CC(c2csc(C3CCN(C(=O)Cn4nc(C(F)F)cc4C(F)F)CC3)n2)=NO1` (stereo not drawn) [I-51, 1-[4-(4-{5-[2-(Allyloxy)-6-chlorophenyl]-4,5-dihydro-1,2-oxazol-3-yl}-1,3-thiazol-2-yl)piperidin-1-yl]-2-[3,5-bis(difluoromethyl)-1H-pyrazol-1-yl]ethanone], the chromatographic logP was found to be 3.82 (pH 2.7, logp [b]) and 3.71 (pH 7.8, logp [c]). For `O=Cc1cccc(F)c1C1CC(c2csc(C3CCN(C(=O)Cn4nc(C(F)F)cc4C(F)F)CC3)n2)=NO1` (stereo not drawn) [I-17, 2-{3-[2-(1-{[3,5-Bis(difluoromethyl)-1H-pyrazol-1-yl]acetyl}piperidin-4-yl)-1,3-thiazol-4-yl]-4,5-dihydro-1,2-oxazol-5-yl}-3-fluorobenzaldehyde], the chromatographic logP by setting is: (pH 2.7, logp [b]) 2.92; (pH 7.8, logp [c]) 2.82.

Turning to `O=C(OCC1CC1)c1ccccc1C1CC(c2csc(C3CCN(C(=O)Cn4nc(C(F)F)cc4C(F)F)CC3)n2)=NO1` (stereo not drawn) [I-13, Cyclopropylmethyl 2-{3-[2-(1-{[3,5-bis(difluoromethyl)-1H-pyrazol-1-yl]acetyl}piperidin-4-yl)-1,3-thiazol-4-yl]-4,5-dihydro-1,2-oxazol-5-yl}benzoate], the chromatographic logP reads like this: (pH 2.7, logp [b]) 3.99; (pH 7.8, logp [c]) 3.92.

With `O=C(Cn1nc(C(F)F)cc1C(F)F)N1CCC(c2nc(C3=NOC(c4ccccc4OCC4CCCCC4)C3)cs2)CC1` (stereo not drawn) [I-24, 2-[3,5-Bis(difluoromethyl)-1H-pyrazol-1-yl]-1-[4-(4-{5-[2-(cyclohexylmethoxy)phenyl]-4,5-dihydro-1,2-oxazol-3-yl}-1,3-thiazol-2-yl)piperidin-1-yl]ethanone], the chromatographic logP worked out at 4.9 (pH 2.3) and 4.9 (pH 7.8). Turning to `CC(C)(C)OC(=O)N1CCC(c2nc(C3=NOC(c4c(F)cccc4C=O)C3)cs2)CC1` (stereo not drawn) [X-a-13, tert-Butyl 4-{4-[5-(2-fluoro-6-formylphenyl)-4,5-dihydro-1,2-oxazol-3-yl]-1,3-thiazol-2-yl}piperidine-1-carboxylate], the chromatographic logP (pH 2.7, log P (HCOOH)) turned out to be 3.62. For the molecule `CCSCc1ccccc1C1CC(c2csc(C3CCN(C(=O)Cn4nc(C(F)F)cc4C(F)F)CC3)n2)=NO1` (stereo not drawn) [I-12, 2-[3,5-Bis(difluoromethyl)-1H-pyrazol-1-yl]-1-{4-[4-(5-{2-[(ethylsulphanyl)methyl]phenyl}-4,5-dihydro-1,2-oxazol-3-yl)-1,3-thiazol-2-yl]piperidin-1-yl}ethanone], the chromatographic logP (pH 2.7, logp [b]) is 3.9. Consider `CC(C)(C)OC(=O)N1CCC(F)(c2nc(C=O)cs2)CC1` [VI-1, tert-Butyl 4-fluoro-4-(4-formyl-1,3-thiazol-2-yl)piperidine-1-carboxylate], for which the chromatographic logP (pH 2.7, log P (HCOOH)) was determined as 2.8.

In the case of `Oc1ccccc1C1CC(c2csc(C3CCNCC3)n2)=NO1` (stereo not drawn) [XII-5, 4-{4-[5-(2-Hydroxyphenyl)-4,5-dihydro-1,2-oxazol-3-yl]-1,3-thiazol-2-yl}piperidinium chloride], the chromatographic logP (pH 2.7, log P (pH2.7)) was determined as 0.69.

In the case of `C#Cc1ccccc1C1CC(c2csc(C3CCN(C(=O)Cn4nc(C(F)F)cc4C(F)F)CC3)n2)=NO1` (stereo not drawn) [I-38, 2-[3,5-Bis(difluoromethyl)-1H-pyrazol-1-yl]-1-(4-{4-[5-(2-ethynylphenyl)-4,5-dihydro-1,2-oxazol-3-yl]-1,3-thiazol-2-yl}piperidin-1-yl)ethanone], the chromatographic logP (pH 2.7, logp [b]) was 3.36.

In the case of `COC(=O)c1ccccc1C1CC(c2csc(C3CCN(C(=O)OC(C)(C)C)CC3)n2)=NO1` (stereo not drawn) [X-a-8, tert-butyl 4-(4-{5-[2-(methoxycarbonyl)phenyl]-4,5-dihydro-1,2-oxazol-3-yl}-1,3-thiazol-2-yl)piperidine-1-carboxylate], the chromatographic logP (pH 2.7, log P (HCOOH)) worked out at 4.14.

As for `COCCOCc1ccccc1C1CC(c2csc(C3CCN(C(=O)Cn4nc(C(F)F)cc4C(F)F)CC3)n2)=NO1` (stereo not drawn) [I-11, 2-[3,5-Bis(difluoromethyl)-1H-pyrazol-1-yl]-1-{4-[4-(5-{2-[(2-methoxyethoxy)methyl]phenyl}-4,5-dihydro-1,2-oxazol-3-yl)-1,3-thiazol-2-yl]piperidin-1-yl}ethanone], the chromatographic logP (pH 2.7, logp [b]) is 3.21.

In turn, `CC(=O)c1ccccc1C1CC(c2csc(C3CCNCC3)n2)=NO1` (stereo not drawn) [XII-2, 1-(2-{3-[2-(Piperidin-4-yl)-1,3-thiazol-4-yl]-4,5-dihydro-1,2-oxazol-5-yl}phenyl)ethanone hydrochloride] came in with a chromatographic logP (pH 2.7, log P (HCOOH)) of 0.96. As for `CC(C)(C)OC(=O)N1CCC(F)(c2nc(C3=NOC(c4ccccc4)C3)cs2)CC1` (stereo not drawn) [X-a-1, tert-Butyl 4-fluoro-4-[4-(5-phenyl-4,5-dihydro-1,2-oxazol-3-yl)-1,3-thiazol-2-yl]piperidine-1-carboxylate], the chromatographic logP (pH 2.7, log P (HCOOH)) amounted to 4.28. As to `CC(C)(C)OC(=O)N1CCC(c2nc(C3=NOC(c4ccccc4C(=O)O)C3)cs2)CC1` (stereo not drawn) [X-a-9, 2-(3-{2-[1-(tert-butoxycarbonyl)piperidin-4-yl]-1,3-thiazol-4-yl}-4,5-dihydro-1,2-oxazol-5-yl)benzoic acid], the chromatographic logP (pH 2.7, log P (HCOOH)) came to 3.18. The same measure, in the same setting: the same measure for `CC(C)(C)OC(=O)N1CCC(c2nc(C3=NOC(c4ccccc4NS(C)(=O)=O)C3)cs2)CC1` (stereo not drawn) [X-a-4, tert-Butyl 4-[4-(5-{2-[(methylsulphonyl)amino]phenyl}-4,5-dihydro-1,2-oxazol-3-yl)-1,3-thiazol-2-yl]piperidine-1-carboxylate]: 3.

The molecule `CS(=O)(=O)Nc1ccccc1C1CC(c2csc(C3CCN(C(=O)Cn4nc(C(F)F)cc4C(F)F)CC3)n2)=NO1` (stereo not drawn) [I-37, N-(2-{3-[2-(1-{[3,5-Bis(difluoromethyl)-1H-pyrazol-1-yl]acetyl}piperidin-4-yl)-1,3-thiazol-4-yl]-4,5-dihydro-1,2-oxazol-5-yl}phenyl)methanesulphonamide] had a chromatographic logP (pH 2.7, logp [b]) of 2.51. As for `O=Cc1ccccc1-c1cc(-c2csc(C3CCN(C(=O)Cn4nc(C(F)F)cc4C(F)F)CC3)n2)no1` [I-31, 2-{3-[2-(1-{[3,5-Bis(difluoromethyl)-1H-pyrazol-1-yl]acetyl}piperidin-4-yl)-1,3-thiazol-4-yl]-1,2-oxazol-5-yl}benzaldehyde], the chromatographic logP (pH 2.7, logp [b]) turned out to be 3.25. Take `O=C(O)c1ccccc1C1CC(c2csc(C3CCN(C(=O)Cn4nc(C(F)F)cc4C(F)F)CC3)n2)=NO1` (stereo not drawn) [2-{3-[2-(1-{[3,5-Bis(difluoromethyl)-1H-pyrazol-1-yl]acetyl}piperidin-4-yl)-1,3-thiazol-4-yl]-4,5-dihydro-1,2-oxazol-5-yl}benzoic acid]: the chromatographic logP (pH 2.7, log P (HCOOH)) worked out at 2.63.

In the case of `O=C(Cn1nc(C(F)F)cc1C(F)F)N1CCC(c2nc(C3=NOC(c4ccccc4CO)C3)cs2)CC1` (stereo not drawn) [I-45, 2-[3,5-Bis(difluoromethyl)-1H-pyrazol-1-yl]-1-[4-(4-{5-[2-(hydroxymethyl)phenyl]-4,5-dihydro-1,2-oxazol-3-yl}-1,3-thiazol-2-yl)piperidin-1-yl]ethanone], where the note is “pH 2.7, logp [b]”, the chromatographic logP came out at 2.45.

For the setting “pH 2.7, log P (HCOOH)”, `O=Cc1csc(C2CCN(C(=O)Cn3nc(C(F)F)cc3C(F)F)CC2)n1` [VI-2, 2-(1-{[3,5-Bis(difluoromethyl)-1H-pyrazol-1-yl]acetyl}piperidin-4-yl)-1,3-thiazole-4-carbaldehyde] yielded a chromatographic logP of 1.93. Consider `O=C(Oc1ccccc1C1CC(c2csc(C3CCN(C(=O)Cn4nc(C(F)F)cc4C(F)F)CC3)n2)=NO1)C1CCCCC1` (stereo not drawn) [I-32, 2-{3-[2-(1-{[3,5-bis(difluoromethyl)-1H-pyrazol-1-yl]acetyl}piperidin-4-yl)-1,3-thiazol-4-yl]-4,5-dihydro-1,2-oxazol-5-yl}phenyl cyclohexanecarboxylate], for which the chromatographic logP turned out to be 4.27 (pH 2.3) and 4.19 (pH 7.8, logp [c]). Regarding `C#CCOc1cccc(Cl)c1C1CC(c2csc(C3CCN(C(=O)Cn4nc(C(F)F)cc4C(F)F)CC3)n2)=NO1` (stereo not drawn) [I-49, 2-[3,5-bis(difluoromethyl)-1H-pyrazol-1-yl]-1-[4-(4-{5-[2-chloro-6-(prop-2-yn-1-yloxy)phenyl]-4,5-dihydro-1,2-oxazol-3-yl}-1,3-thiazol-2-yl)piperidin-1-yl]ethanone], the chromatographic logP (pH 2.7, logp [b]) stood at 3.5 and the chromatographic logP (pH 7.8, logp [c]) came to 3.34. As for `O=C(Cn1nc(C(F)F)cc1C(F)F)N1CCC(c2nc(C3=NOC(c4c(O)cccc4Cl)C3)cs2)CC1` (stereo not drawn) [I-54, 2-[3,5-Bis(difluoromethyl)-1H-pyrazol-1-yl]-1-(4-{4-[5-(2-chloro-6-hydroxyphenyl)-4,5-dihydro-1,2-oxazol-3-yl]-1,3-thiazol-2-yl}piperidin-1-yl)ethanone], the chromatographic logP runs as follows: (pH 2.7, log P (HCOOH)) 2.94; (pH 2.7, logp [b]) 2.94.

`CC(C)(C)OC(=O)N1CCC(c2nc(C3=NOC(c4ccccc4OCC4CCCCC4)C3)cs2)CC1` (stereo not drawn) [X-a-7, tert-butyl 4-(4-{5-[2-(cyclohexylmethoxy)phenyl]-4,5-dihydro-1,2-oxazol-3-yl}-1,3-thiazol-2-yl)piperidine-1-carboxylate] returned a chromatographic logP (pH 2.7, log P (pH2.7)) of 6.3. In the case of `CC(C)(C)OC(=O)N1CCC(c2nc(C3=NOC(c4ccccc4C=O)C3)cs2)CC1` (stereo not drawn) [X-a-3, tert-Butyl 4-{4-[5-(2-formylphenyl)-4,5-dihydro-1,2-oxazol-3-yl]-1,3-thiazol-2-yl}piperidine-1-carboxylate], the chromatographic logP (pH 2.7, log P (HCOOH)) was 3.76.
